According to US12528777B2, “Quinazolinones derivatives for treatment of non-alcoholic fatty liver disease, preparation and use thereof” (Council of Scientific and Industrial Research, priority 2020, dated 2026):
Entries after “also recorded” stand apart in the source; their conditions may differ.

Experiments:
COP1 [1] = molecular target: COP1 (Homo sapiens, UniProt Q8NHY2); assay: In vitro ubiquitination of purified ATGL by COP1 with UbcH6; type: biochemical; set-up: host or cells: HEK293A; settings: 5 μM compound, COP1 overexpressing HEK293A lysate
From the text: Purification of ATGL protein and obtaining COP1 overexpressing cell lysate: Myc-ATGL plasmid and Myc-DDK-COP1 plasmid ([…] each) were transfected separately in cultured HEK293A cells with the help of Lipofectamine2000 (Invitrogen). Cells were harvested in Lysis Buffer and protein solution was extracted as described previously. The Lysis Buffer used to harvest COP1 overexpressing cells had 0.1% SDS supplemented in it. The concentration of protein was estimated using Bradford assay. For source of E3 ligase, the total cell lysate from COP1 overexpressing HEK293A cells were used.
For purification of Myc-ATGL: 1 ml of Ni^2+-NTA resin (Roche) was taken in a 15 ml centrifuge tube and centrifuged at 2000 RPM for 5 minutes. The upper ethanol layer was discarded and the pellet was washed in 1×PBS twice to remove any remaining traces of ethanol. The pellet was finally washed once with Lysis Buffer for equilibration. […] The tube was incubated overnight at 4° C. in a rotary shaker.
The next day, the solution was centrifuged at 2000 RPM for 10 minutes and the supernatant collected. Lysis Buffer (containing protease inhibitor cocktail twice the previous concentration) was used for washing the beads twice to remove non-specific and unattached reactants in a stringent condition. The beads were finally washed once with 1×PBS containing the same amount of protease inhibitor for equilibration. 300 μl of 500 mM Imidazole (Sigma Aldrich) solution in 1×PBS was added to the resin for elution of ATGL and centrifuged at 2000 RPM for 30 minutes and the eluted protein was collected. To the separated resin, 300 μl of 1M Imidazole solution was added and centrifuged at 2000 RPM for 30 minutes and the second elute was collected. […] of eluted protein from each elution was boiled with 5 μl of Laemmli's buffer at 95° C. for 10 minutes and run in 10% SDS-PAGE gel. The supernatant collected before elution of ATGL and the proteins still attached to the Ni^2+-NTA resin were also run in the SDS-PAGE. The resolved proteins were subsequently transferred on PVDF membranes and probed with anti-myc primary antibody to check the presence of purified ATGL in the elute. Also to check the yield of the purified protein, 40 μl of the elute was run in 10% SDS page and stained with Coomassie Brilliant Blue solution followed by destaining with methanol, glacial acetic acid and water in a 50:40:10 ratio.
For identifying the E2 ubiquitin-conjugating enzyme responsible for ATGL ubiquitination by COP1, an in vitro ubiquitinylation kit (Enzo Life Sciences) was used. The assay was reconstituted as per manufacturer's protocol with the panel of E2 conjugating enzymes provided and other required components at the mentioned concentrations. The reaction was carried out for 6 hours following which it was quenched as per directions with the provided 2× non-reducing gel buffer and then analysed by western blotting.
Having identified the E2 ubiquitin conjugating enzyme as UbcH6, ubiquitination assay was set up in vitro as described previously with 5 μM of the compound 9, 107, 171, 179 and 73 followed by quenching and analysis by western blotting.
Ubiquitination of a target protein is carried out in a three step process involving three different enzymes: E1 ubiquitin activating enzyme, E2 ubiquitin conjugating enzyme and E3 ubiquitin ligase. In humans, there is only one E1 ubiquitin activating enzyme and multiple E2 and E3 enzymes. […]

Plasma stability assay = type: in vitro ADME, human
Protocol: 1 mM Stock of test compound was prepared from 10 mM initial stock solution of compounds by diluting 10 μL of 10 mM stock with 90 μL of DMSO. Then 10 μL of 1 mM stock was diluted with 90 µL of DMSO to give 100 μM concentration. The frozen plasma was thawed at room temperature and centrifuged at 1400 rpm at 4° C., for 15 minutes. Approximately […] of the clear supernatant fraction was transferred to a separate tube and was used for the assay. Final working stock of 1 μM was prepared by diluting 3 μL of 100 μM with 297 μL of plasma. Plasma containing the test compound was incubated for 120 min at 37° C. in shaker with 500 rpm. 50 μL of aliquot of sample at 0, 15, 30, 60 and 120 minutes were precipitated with 150 μL of acetonitrile containing internal standard and centrifuged at 4000 rpm at 4° C. for 20 minutes. 120 μL of supernatant was diluted with 120 μL of water and analyzed by LC-MS/MS.

ATGL [2] = assay: qPCR of ATGL mRNA in HepG2 cells; type: cell-based; settings: 5 μM and 10 μM, 24 hours
Protocol: (§1) Ubiquitination of ATGL by COP1 is a post translational event, therefore, it is expected that the mRNA level of ATGL will not change compared to control upon treatment with the compound of the present disclosure which inhibit COP1. To establish this, HepG2 cells were treated with 5 μM and 10 μM of the compounds 9, 107, 171, 179 and 73 for 24 hours. RNA was isolated using TRIzol reagent followed by chloroform treatment and precipitation with isopropanol. cDNA was obtained from the isolated RNA and qPCR was carried out using SyBr green reagent. COP1 and ATGL gene expression levels were checked. 18s was used as control. FIG. 8 illustrates that compounds exert no effect on the mRNA levels of ATGL.

COP1 [3] = assay: qPCR of COP1 mRNA in HepG2 cells; type: cell-based; settings: 5 μM and 10 μM, 24 hours
Protocol: as §1

[4] = Lipophilicity assay (octanol/buffer); type: physicochemical
Protocol: 1.56 g NaH2PO4·2H2O was dissolved in 0.5 L water in a 1 L beaker. After adjusting pH to 7.4 using NaOH solution, the volume was made up to 1 L. Equal volumes of sodium phosphate buffer (10 mM, pH 7.4) and n-octanol were added to a separation funnel and mixed thoroughly by shaking and inverting the funnel several times. The two layers were allowed to separate for overnight and then dispensed in two separate glass bottles. 10 mM stock solution was prepared in 100% DMSO and stored at 4° C. 495 μL of organic phase (1-octanol) was added to each well of a 2 mL deep well plate, followed by 495 μL of buffer and 10 μL of test compound was added. The plate was incubated for 3 hr at room temperature on a plate shaker at 500 rpm. After incubation, the samples were allowed to equilibrate for 20 min and then centrifuged at 4000 rpm for 30 min for complete phase separation and analysed by LC-UV.
Log D=Log (area of octanol/area of buffer)

ATGL [5] = assay: Western blot of ATGL level in HepG2 cells; type: cell-based; set-up: key to Increase in ATGL level: + = slight or in insignificant; ++ = Moderate; +++ and ++++ = active; +++ and ++++ = active; +++++ = very active; settings: HepG2 cells, western blot, score
Procedure, shortened: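 HepG2 cells were treated with compound 24 h (10 μM screen; 50 nM–5 μM dose series) and lysed. 30 μg protein was western blotted for ATGL, with actin as loading reference. ATGL increase was expressed as percent of the 1.6-fold siCOP1 maximum and plotted against log concentration for EC50.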

HepG2 cells = assay: Basal oxygen consumption rate (OCR) by Seahorse; type: cell-based; settings: 5 μM, 24 hours, hydrochloride
Protocol: HepG2 cells were plated in Seahorse cell culture microplates (24 well). Cells were treated with 5 μM of compounds 9, 107, 238 and 238a for 24 hours. The calibrator plate was dipped in the calibrator solution and incubated overnight at 37° C. in a non-CO2 incubator. The next day, cells were washed with Agilent Seahorse XF Base Medium, Minimal DMEM twice, making sure to leave at least 50 μl of media in the wells and incubated for 1 hour at 37° C. in a non-CO2 incubator. Following this, oxygen consumption rate was measured in the Seahorse instrument. FIG. 12 illustrates basal oxygen consumption rate of compounds 9, 107, 238a, and 238.

COP1 (Homo sapiens, UniProt Q8NHY2), sequence (Q8NHY2 whole entry): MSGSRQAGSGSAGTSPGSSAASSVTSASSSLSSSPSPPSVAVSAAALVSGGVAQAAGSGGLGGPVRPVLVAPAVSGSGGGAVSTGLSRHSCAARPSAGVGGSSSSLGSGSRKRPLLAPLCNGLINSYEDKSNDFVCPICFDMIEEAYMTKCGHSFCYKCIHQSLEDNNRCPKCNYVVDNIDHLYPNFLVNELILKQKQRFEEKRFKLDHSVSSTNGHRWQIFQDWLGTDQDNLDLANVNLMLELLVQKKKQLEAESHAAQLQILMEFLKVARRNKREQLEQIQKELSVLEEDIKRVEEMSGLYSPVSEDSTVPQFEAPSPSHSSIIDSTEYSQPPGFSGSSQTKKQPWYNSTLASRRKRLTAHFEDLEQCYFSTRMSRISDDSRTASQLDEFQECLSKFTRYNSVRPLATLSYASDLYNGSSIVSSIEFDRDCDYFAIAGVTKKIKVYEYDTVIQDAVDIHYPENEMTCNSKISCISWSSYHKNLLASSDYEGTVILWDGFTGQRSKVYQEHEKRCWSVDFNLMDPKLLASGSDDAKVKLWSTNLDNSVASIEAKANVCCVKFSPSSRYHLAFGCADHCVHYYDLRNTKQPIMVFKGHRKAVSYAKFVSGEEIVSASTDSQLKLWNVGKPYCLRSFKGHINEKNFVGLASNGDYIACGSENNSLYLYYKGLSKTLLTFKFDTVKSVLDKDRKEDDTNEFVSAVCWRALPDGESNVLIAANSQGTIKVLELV

| Compound | ATGL ubiquitination by COP1 in vitro (COP1 [1]) | Mean % remaining at 2 hrs in human Plasma (Plasma stability assay; 1 μM, 37° C., 120 min, LC-MS/MS) | Plasma stability (Plasma stability assay; human plasma, after 2 hours, with respect to Propantheline) | ATGL mRNA level (ATGL [2]) | COP1 mRNA level (COP1 [3]) | logD ([4]; n-octanol / 10 mM sodium phosphate buffer pH 7.4, LC-UV) | Lipophilicity class from Log D ([4]; pH 7.4) | Increase in ATGL level (ATGL [5]) | Basal oxygen consumption rate (HepG2 cells) |
| --- | --- | --- | --- | --- | --- | --- | --- | --- | --- |
| COCCn1cnc2ccc(NC(=O)Nc3cccc(C(C)=O)c3)c(Br)c2c1=O [Compound 73, 1-(3-acetylphenyl)-3-(5-bromo-3-(2-methoxyethyl)-4-oxo-3,4-dihydroquinazolin-6-yl)urea] | effective in reducing the ubiquitination of ATGL by COP1 | 10.3% | lower plasma stability | no significant changes | no significant changes | 1.95 | ideal lipophilicity | – | – |
| CCC(COC)n1cnc2ccc(NC(=O)Nc3cccc(C(C)=O)c3)cc2c1=O (stereo not drawn) [Compound 171, 1-(3-acetylphenyl)-3-(3-(1-methoxybutan-2-yl)-4-oxo-3,4-dihydroquinazolin-6-yl)urea] | effective in reducing the ubiquitination of ATGL by COP1 | – | – | no significant changes | no significant changes | – | – | +++ | – |
| COCCn1c(CN2CCCCC2)nc2ccc(NC(=O)Nc3cccc(C(C)=O)c3)cc2c1=O.Cl [Compound 238a, 1-(3-acetylphenyl)-3-(3-(2-methoxyethyl)-4-oxo-2-(piperidin-1-ylmethyl)-3,4-dihydroquinazolin-6-yl)urea hydrochloride] | – | – | – | – | – | – | – | – | higher oxygen consumption rate compared to control; also recorded: increase in the basal OCR values |
